Reference: article PMC5564600 (Oncotarget, 2017)
Where two headings read alike, the source gives them in different places.

Assays:
Assay in all cases: biochemical
Format in all cases: binding
panel of 442 kinases [1] = target: T1, panel of 442 kinases (Homo sapiens, UniProt P00519, F317L); conditions: for remaining activity at 1 µM: read-out: % of control at 1 µM; for remaining activity at 10 µM: read-out: % of control at 10 µM
T1 construct: purchased Ambit Biosciences (scanMAXX KINOMEscan)

panel of 442 kinases [2] = target: T2, panel of 442 kinases (Homo sapiens, UniProt Q15139); conditions: kinase PRKD1; for remaining activity at 1 µM: read-out: PRKD1 (% of control at 1 µM)
T2 construct: purchased Ambit Biosciences (scanMAXX KINOMEscan)
T2 sequence (Q15139 1-912): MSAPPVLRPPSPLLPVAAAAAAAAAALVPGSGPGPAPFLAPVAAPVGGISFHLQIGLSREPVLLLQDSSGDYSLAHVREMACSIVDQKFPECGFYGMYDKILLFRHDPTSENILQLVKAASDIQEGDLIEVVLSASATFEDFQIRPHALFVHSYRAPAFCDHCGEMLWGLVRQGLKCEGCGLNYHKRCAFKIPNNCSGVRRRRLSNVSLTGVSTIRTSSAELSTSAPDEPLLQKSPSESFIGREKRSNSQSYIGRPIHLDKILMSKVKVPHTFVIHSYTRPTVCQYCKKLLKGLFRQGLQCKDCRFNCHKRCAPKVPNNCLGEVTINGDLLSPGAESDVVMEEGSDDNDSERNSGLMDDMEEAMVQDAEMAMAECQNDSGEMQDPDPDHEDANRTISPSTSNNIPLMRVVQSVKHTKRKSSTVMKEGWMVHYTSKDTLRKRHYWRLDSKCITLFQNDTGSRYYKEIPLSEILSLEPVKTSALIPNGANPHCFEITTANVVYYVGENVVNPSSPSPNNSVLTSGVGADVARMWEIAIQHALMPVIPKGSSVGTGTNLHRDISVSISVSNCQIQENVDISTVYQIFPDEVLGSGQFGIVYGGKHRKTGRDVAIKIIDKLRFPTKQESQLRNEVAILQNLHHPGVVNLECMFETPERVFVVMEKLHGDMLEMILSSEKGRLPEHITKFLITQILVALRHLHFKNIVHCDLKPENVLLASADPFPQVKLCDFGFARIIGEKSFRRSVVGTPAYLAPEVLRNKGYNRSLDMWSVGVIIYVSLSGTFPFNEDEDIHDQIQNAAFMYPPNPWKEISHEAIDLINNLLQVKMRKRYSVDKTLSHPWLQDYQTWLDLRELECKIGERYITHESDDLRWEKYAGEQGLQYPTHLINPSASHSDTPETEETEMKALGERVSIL

panel of 442 kinases [3] = target: T3, panel of 442 kinases (Homo sapiens, UniProt O96017); conditions: CHEK2; for remaining activity at 1 µM: read-out: % of control at 1 µM
T3 construct: purchased Ambit Biosciences (scanMAXX KINOMEscan)

panel of 442 kinases [4] = target: T4, panel of 442 kinases (Homo sapiens, UniProt Q8WXR4); conditions: kinase MYO3B; for remaining activity at 1 µM: read-out: % of control at 1 µM
T4 construct: purchased Ambit Biosciences (scanMAXX KINOMEscan)
T4 sequence (Q8WXR4 1-1341): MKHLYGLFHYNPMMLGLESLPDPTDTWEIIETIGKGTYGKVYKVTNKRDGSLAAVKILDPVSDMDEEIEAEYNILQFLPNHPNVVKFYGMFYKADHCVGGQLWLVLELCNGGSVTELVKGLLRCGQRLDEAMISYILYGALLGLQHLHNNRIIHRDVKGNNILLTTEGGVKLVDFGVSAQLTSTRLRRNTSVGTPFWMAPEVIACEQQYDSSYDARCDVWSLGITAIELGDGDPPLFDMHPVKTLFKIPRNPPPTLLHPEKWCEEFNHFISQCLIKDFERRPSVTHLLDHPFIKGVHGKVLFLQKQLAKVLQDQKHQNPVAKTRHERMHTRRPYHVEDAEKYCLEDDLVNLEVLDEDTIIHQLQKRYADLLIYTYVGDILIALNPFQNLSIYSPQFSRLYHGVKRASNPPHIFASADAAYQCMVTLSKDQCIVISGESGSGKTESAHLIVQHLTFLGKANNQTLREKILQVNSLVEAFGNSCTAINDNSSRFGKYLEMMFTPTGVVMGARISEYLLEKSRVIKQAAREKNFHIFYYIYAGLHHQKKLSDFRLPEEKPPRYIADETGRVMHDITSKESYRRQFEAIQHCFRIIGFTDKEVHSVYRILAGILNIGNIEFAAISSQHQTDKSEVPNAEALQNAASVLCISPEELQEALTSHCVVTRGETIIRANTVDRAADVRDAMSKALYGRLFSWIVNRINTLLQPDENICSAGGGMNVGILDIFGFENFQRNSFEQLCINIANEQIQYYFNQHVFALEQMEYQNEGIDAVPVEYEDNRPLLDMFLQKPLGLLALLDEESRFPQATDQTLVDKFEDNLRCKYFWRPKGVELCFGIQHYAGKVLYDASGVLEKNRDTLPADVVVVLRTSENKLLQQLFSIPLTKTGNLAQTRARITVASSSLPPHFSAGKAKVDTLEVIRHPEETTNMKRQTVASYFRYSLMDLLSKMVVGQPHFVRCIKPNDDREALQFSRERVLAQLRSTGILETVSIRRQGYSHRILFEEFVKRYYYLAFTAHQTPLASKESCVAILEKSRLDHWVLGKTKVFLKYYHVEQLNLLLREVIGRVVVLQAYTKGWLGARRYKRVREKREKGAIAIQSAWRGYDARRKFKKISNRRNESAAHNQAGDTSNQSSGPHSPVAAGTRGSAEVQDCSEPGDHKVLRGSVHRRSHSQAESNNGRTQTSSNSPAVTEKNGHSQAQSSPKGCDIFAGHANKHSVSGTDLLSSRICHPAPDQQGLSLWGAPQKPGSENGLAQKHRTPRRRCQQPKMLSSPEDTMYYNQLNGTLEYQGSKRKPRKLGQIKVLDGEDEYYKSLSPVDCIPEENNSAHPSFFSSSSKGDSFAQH

[5] = 10 µM, read-out: % of control at 10 µM

T3 sequence (O96017 whole entry): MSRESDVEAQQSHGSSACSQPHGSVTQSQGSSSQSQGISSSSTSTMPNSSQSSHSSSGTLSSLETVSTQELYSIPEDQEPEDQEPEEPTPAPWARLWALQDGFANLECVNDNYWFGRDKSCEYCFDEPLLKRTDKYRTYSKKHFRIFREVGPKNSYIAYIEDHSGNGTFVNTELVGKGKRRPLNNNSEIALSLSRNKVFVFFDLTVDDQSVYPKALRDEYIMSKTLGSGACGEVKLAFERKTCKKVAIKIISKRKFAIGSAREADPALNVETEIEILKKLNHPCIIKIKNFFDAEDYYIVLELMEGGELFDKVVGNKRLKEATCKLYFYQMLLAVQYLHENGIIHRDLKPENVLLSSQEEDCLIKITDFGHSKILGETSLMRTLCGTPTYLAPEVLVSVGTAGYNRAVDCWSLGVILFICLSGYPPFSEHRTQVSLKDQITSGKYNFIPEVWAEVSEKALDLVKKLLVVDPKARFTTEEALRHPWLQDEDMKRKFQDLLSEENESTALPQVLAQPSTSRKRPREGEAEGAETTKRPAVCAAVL
T1 sequence (P00519 whole entry F317L): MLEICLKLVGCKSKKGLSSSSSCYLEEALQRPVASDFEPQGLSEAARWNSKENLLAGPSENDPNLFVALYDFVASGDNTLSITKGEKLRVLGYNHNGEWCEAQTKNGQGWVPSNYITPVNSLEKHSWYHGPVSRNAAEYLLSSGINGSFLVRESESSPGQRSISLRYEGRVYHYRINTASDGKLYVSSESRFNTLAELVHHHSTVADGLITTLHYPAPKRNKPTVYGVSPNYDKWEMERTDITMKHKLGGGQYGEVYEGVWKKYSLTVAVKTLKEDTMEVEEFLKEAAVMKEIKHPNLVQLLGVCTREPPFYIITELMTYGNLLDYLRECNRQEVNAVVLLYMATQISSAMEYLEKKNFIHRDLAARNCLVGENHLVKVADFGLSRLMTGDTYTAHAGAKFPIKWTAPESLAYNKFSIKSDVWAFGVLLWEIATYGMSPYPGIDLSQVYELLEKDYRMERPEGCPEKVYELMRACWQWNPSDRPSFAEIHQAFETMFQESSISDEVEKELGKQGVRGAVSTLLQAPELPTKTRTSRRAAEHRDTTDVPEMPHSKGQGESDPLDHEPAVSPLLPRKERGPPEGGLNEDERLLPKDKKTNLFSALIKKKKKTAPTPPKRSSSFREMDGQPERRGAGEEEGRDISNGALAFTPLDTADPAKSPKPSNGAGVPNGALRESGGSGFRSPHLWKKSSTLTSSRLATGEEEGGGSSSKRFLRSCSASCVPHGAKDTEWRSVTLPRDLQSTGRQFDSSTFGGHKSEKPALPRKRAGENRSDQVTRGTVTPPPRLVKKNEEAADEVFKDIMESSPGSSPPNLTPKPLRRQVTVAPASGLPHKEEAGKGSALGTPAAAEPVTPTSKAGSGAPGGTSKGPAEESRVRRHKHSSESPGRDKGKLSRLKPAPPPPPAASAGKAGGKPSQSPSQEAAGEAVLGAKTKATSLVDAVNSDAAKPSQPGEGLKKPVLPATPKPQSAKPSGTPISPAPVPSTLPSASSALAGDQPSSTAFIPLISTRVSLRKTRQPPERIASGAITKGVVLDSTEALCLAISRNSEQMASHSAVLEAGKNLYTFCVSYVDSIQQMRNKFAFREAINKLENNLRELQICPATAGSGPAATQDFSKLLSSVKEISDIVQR

Row | Structure (SMILES) | remaining activity at 1 µM (panel of 442 kinases [1]; ABL1(F317L)-nonphosphorylated) | remaining activity at 10 µM (panel of 442 kinases [1]; ABL1(F317L)-nonphosphorylated) | remaining activity at 1 µM (panel of 442 kinases [1]; ABL1(F317L)-phosphorylated) | remaining activity at 10 µM (panel of 442 kinases [1]; ABL1(F317L)-phosphorylated) | remaining activity at 1 µM (panel of 442 kinases [2]) | remaining activity at 10 µM (panel of 442 kinases [2]; 10 µM, read-out: PRKD1 (% of control at 10 µM)) | remaining activity at 1 µM (panel of 442 kinases [3]) | remaining activity at 10 µM (panel of 442 kinases [3]; [5]) | remaining activity at 1 µM (panel of 442 kinases [4]) | remaining activity at 10 µM (panel of 442 kinases [4]; [5])
1 | Nc1cc(C(F)(F)F)c(-c2cc(N3CCOCC3)nc(N3CCOCC3)n2)cn1 [Buparlisib] | 100% | 100% | 100% | 100% | 100% | 100% | 93% | 100% | 51% | 73%
2 | Cn1c(=O)n(-c2ccc(C(C)(C)C#N)cc2)c2c3cc(-c4cnc5ccccc5c4)ccc3ncc21 [Dactolisib, 2-methyl-2-[4-(3-methyl-2-oxo-8-quinolin-3-yl-2,3-dihydroimidazo[4,5-c]quinolin-1-yl)-phenyl] propionitrile] | 100% |  | 100% |  | 100% |  |  |  | 81% | 
3 | COc1ncc(-c2ccc3nccc(-c4ccnnc4)c3c2)cc1NS(=O)(=O)c1ccc(F)cc1F [Omipalisib] | 87% |  | 100% |  | 100% |  | 100% |  | 91% | 
4 | FC(F)c1nc2ccccc2n1-c1nc(N2CCOCC2)nc(N2CCOCC2)n1 [ZSTK474, 2-(difluoromethyl)-1-[4,6-di(4-morpholinyl)-1,3,5-triazin-2-yl]-1H-benzimidazole] | 85% |  | 100% |  | 100% |  | 92% |  | 64% | 
